Columns and labels:
[1] = tested on: other serine hydrolase activities; test: In situ competitive ABPP with FP-rhodamine, other serine hydrolases; type: cell-based, human; conditions: SKOV-3 cells treated in culture with AS115 (0-10 μM), 4 h
Description: (§1) Human ovarian cancer cell lines were obtained form the National Cancer Institute's Developmental Therapeutics Program. The melanoma lines C8161 and MUM-2B were obtained form Mary Hendrix. Cells were maintained in RPMI medium 1640 with 10% (v/v) fetal calf serum at 37° C. in a humidified atmosphere of 5% CO2/95% air. At approximately 80% confluency, cells were trypsinized, counted with the aid of a hemocytometer, and 2.5×10^6 cells were plated in 6 cm dishes. 20 h after plating cells were washed twice with PBS and supplemented with serum free RPMI containing 0.5% BSA (Sigma)(BSA-RPMI) with AS115 (0.01-10 μM) or vehicle (DMSO) at 0.1%. After incubation for 4 h the cells were harvested and analyzed by ABPP or LC-MS.
[…]. Cells were washed twice and scraped in ice-cold PBS. […] Proteomes protein concentrations were determined by a protein assay kit (Bio-Rad), adjusted to a final concentration of 1 mg/mL in Tris buffer, and treated with 2 μM FP-rhodamine for 30 min at room temperature (50 μL total reaction volume). […] Reactions were quenched with one volume of standard 2×SDS/PAGE loading buffer (reducing), separated by SDS/PAGE (10% acrylamide) and visualized in-gel with a Hitachi FMBio Ile flatbed fluorescence scanner (MiraiBio). Integrated band intensities were calculated for the labeled proteins and averaged from 3 independent cell samples to determine the level of each enzyme activity.

[2] = tested on: SKOV-3 cells; test: Untargeted LC-MS comparative metabolomics of inhibitor-treated cells; type: cell-based, human; conditions: 4 h
Description: The following LC-MS conditions were used for analysis of cancer cell metabolomes. Cell pellets were harvested by scraping, isolated by centrifugation at 1,400×g, and dounce-homogenized in 4 mL of a 2:1:1 mixture of chloroform:methanol:Tris buffer (50 mM Tris*HCl, pH 8.0). Samples that were analyzed by targeted LC-MS were homogenized in the presence of the following synthetic standards: C15:0 MAG (50 pmol), C17:0 LPA (50 pmol), and 13C-C16:0 MAGE (25 pmol). Organic and aqueous layers were separated by centrifugation at 1,260×g for 5 min. The organic layer was then removed, dried under a stream of N2, and re-solubilized in 100 μL of chloroform, of which 30 μL was analyzed by LC-MS. Extraction of LPA was performed by acidifying the remaining aqueous layer to a final concentration of 5% formic acid, followed by the addition of 2 mL of chloroform. The mixture was vortexed, the organic layer removed, concentrated to dryness, and dissolved in 100 μL of chloroform, of which 30 μL was analyzed by LC-MS.
LC-MS analysis was performed using an Agilent 1100 LC-MSD SL instrument. […] Mobile phase A was composed of a 95:5 ratio of water:methanol and mobile phase B consisted of 2-propanol, methanol, and water in a 60:35:5 ratio. Solvent modifiers such as 0.1% formic acid and 0.1% ammonium hydroxide were used to assist ion formation as well as improve the LC resolution in both positive and negative ionization modes respectively. The flow rate for each run started at 0.1 mL/min for 5 min, to alleviate backpressure associated with injecting chloroform. The gradient started at 0% B and increased linearly to 100% B over the course of 40 min with a flow rate of 0.4 mL/min, followed by an isocratic gradient of 100% B for 7 min before equilibrating for 8 min at 0% B with a flow rate of 0.5 mL/min.
MS analysis was performed with an electrospray ionization (ESI) source. The capillary voltage was set to 3.0 kV and the fragmentor voltage to 100V. The drying gas temperature was 350° C., the drying gas flow rate was 10 L/min, and the nebulizer pressure was 35 psi. Untargeted data was collected using a mass range of 200-1000 Da and exported as common data format (.CDF) files for computational analysis. Differentially expressed metabolites between sample pairs were identified using the XCMS analyte profiling software (http://metlin/download) that aligns mass peaks from two LC-MS traces and quantifies the relative intensities of global metabolites (5). Significant inhibitor-sensitive peak changes were confirmed by manual quantification using the area under the peak normalized to total ion current. Targeted LC-MS measurements were made using selected ion monitoring (SIM). Peaks were quantified by measuring the area under the peak and normalized to an internal standard (C15:0 MAG) or endogenous lipid (palmitic acid). Absolute MAGE levels were estimated by comparison to a 13C-MAGE standard.
as §1
These experiments were performed using the method of untargeted liquid chromatography-mass spectrometry (LC-MS) for comparative metabolomics. Cells were treated with AS115 (10 μM) or DMSO for 4 h and analyzed by untargeted LC-MS methods. […] Relative mass signals are shown in Table 1, represented as the average values and standard error for three independent experiments.

**Q.** Which IC50 [1] does the source give for CCCCOCC1CCCCC1COCCNC(=O)Oc1ccccc1F (stereo not shown) [AS115] here?
**A.** Its IC50 is greater than 10 µM.

**Q.** And the “Levels of lipophilic metabolites (m/z 317, 345, and 347)” value ([2]; 10 μM)?
**A.** The value was “substantial reduction”.

**Q.** What about the “Levels of typical lipid species (free fatty acids, phospholipids, ceramides, monoacylglycerides)” value ([2]; 10 μM) of the same compound?
**A.** The value was “none of which were significantly altered”.

**Q.** What about the “Relative mass signal DMSO/AS115, Ceramide C16” value ([2]; AS115 10 μM or DMSO) of the same compound?
**A.** The value was 0.53.

**Q.** What about the “Relative mass signal DMSO/AS115, Ceramide C18” value ([2]; AS115 10 μM or DMSO) of the same compound?
**A.** The value was 0.73.

**Q.** And the “Relative mass signal DMSO/AS115, FFA C14” value ([2]; AS115 10 μM or DMSO)?
**A.** Its value is 0.69.

**Q.** And the “Relative mass signal DMSO/AS115, FFA C16” value ([2]; AS115 10 μM or DMSO)?
**A.** Its value is 0.69.

**Q.** What about the “Relative mass signal DMSO/AS115, FFA C18” value ([2]; AS115 10 μM or DMSO) of the same compound?
**A.** The value was 0.76.

**Q.** And the “Relative mass signal DMSO/AS115, FFA C18:1” value ([2]; AS115 10 μM or DMSO)?
**A.** Its value is 0.56.

**Q.** And the “Relative mass signal DMSO/AS115, FFA C20:4” value ([2]; AS115 10 μM or DMSO)?
**A.** Its value is 1.04.

**Q.** And the “Relative mass signal DMSO/AS115, MAG C16” value ([2]; AS115 10 μM or DMSO)?
**A.** The value was 1.00.

**Q.** And the “Relative mass signal DMSO/AS115, MAG C18:1” value ([2]; AS115 10 μM or DMSO)?
**A.** The value was 0.83.

**Q.** And the “Relative mass signal DMSO/AS115, PA C32” value ([2]; AS115 10 μM or DMSO)?
**A.** Its value is 1.01.

**Q.** What about the “Relative mass signal DMSO/AS115, PA C34” value ([2]; AS115 10 μM or DMSO) of the same compound?
**A.** The value was 1.41.

**Q.** And the “Relative mass signal DMSO/AS115, PA C34:1” value ([2]; AS115 10 μM or DMSO)?
**A.** Its value is 0.95.

**Q.** And the “Relative mass signal DMSO/AS115, PA C36:1” value ([2]; AS115 10 μM or DMSO)?
**A.** Its value is 0.99.

**Q.** What about the “Relative mass signal DMSO/AS115, PA C36:2” value ([2]; AS115 10 μM or DMSO) of the same compound?
**A.** Its value is 0.74.

**Q.** And the “Relative mass signal DMSO/AS115, PC C32” value ([2]; AS115 10 μM or DMSO)?
**A.** Its value is 1.07.

**Q.** What about the “Relative mass signal DMSO/AS115, PC C34” value ([2]; AS115 10 μM or DMSO) of the same compound?
**A.** Its value is 0.96.

**Q.** And the “Relative mass signal DMSO/AS115, PC C34:1” value ([2]; AS115 10 μM or DMSO)?
**A.** Its value is 1.01.

**Q.** What about the “Relative mass signal DMSO/AS115, PC C36:1” value ([2]; AS115 10 μM or DMSO) of the same compound?
**A.** Its value is 0.68.

**Q.** And the “Relative mass signal DMSO/AS115, PC C36:2” value ([2]; AS115 10 μM or DMSO)?
**A.** The value was 1.07.

**Q.** What about the “Relative mass signal DMSO/AS115, PE C32” value ([2]; AS115 10 μM or DMSO) of the same compound?
**A.** The value was 1.13.

**Q.** What about the “Relative mass signal DMSO/AS115, PE C34” value ([2]; AS115 10 μM or DMSO) of the same compound?
**A.** Its value is 0.94.

**Q.** What about the “Relative mass signal DMSO/AS115, PE C34:1” value ([2]; AS115 10 μM or DMSO) of the same compound?
**A.** The value was 0.84.

**Q.** What about the “Relative mass signal DMSO/AS115, PE C36:1” value ([2]; AS115 10 μM or DMSO) of the same compound?
**A.** The value was 0.94.

**Q.** And the “Relative mass signal DMSO/AS115, PE C36:2” value ([2]; AS115 10 μM or DMSO)?
**A.** The value was 0.61.

**Q.** And the “Relative mass signal DMSO/AS115, PG C32” value ([2]; AS115 10 μM or DMSO)?
**A.** Its value is 0.78.

**Q.** And the “Relative mass signal DMSO/AS115, PG C34” value ([2]; AS115 10 μM or DMSO)?
**A.** The value was 0.95.

**Q.** What about the “Relative mass signal DMSO/AS115, PG C34:1” value ([2]; AS115 10 μM or DMSO) of the same compound?
**A.** Its value is 0.98.

**Q.** What about the “Relative mass signal DMSO/AS115, PG C36:1” value ([2]; AS115 10 μM or DMSO) of the same compound?
**A.** The value was 0.89.

**Q.** And the “Relative mass signal DMSO/AS115, PG C36:2” value ([2]; AS115 10 μM or DMSO)?
**A.** Its value is 1.04.

**Q.** And the “Relative mass signal DMSO/AS115, PS C32” value ([2]; AS115 10 μM or DMSO)?
**A.** The value was 1.06.

**Q.** What about the “Relative mass signal DMSO/AS115, PS C34” value ([2]; AS115 10 μM or DMSO) of the same compound?
**A.** Its value is 1.02.

**Q.** What about the “Relative mass signal DMSO/AS115, PS C34:1” value ([2]; AS115 10 μM or DMSO) of the same compound?
**A.** The value was 0.96.

**Q.** What about the “Relative mass signal DMSO/AS115, PS C36:1” value ([2]; AS115 10 μM or DMSO) of the same compound?
**A.** Its value is 0.99.

**Q.** And the “Relative mass signal DMSO/AS115, PS C36:2” value ([2]; AS115 10 μM or DMSO)?
**A.** Its value is 1.13.

**Q.** What about the “Relative mass signal DMSO/AS115, MAGE C16” value ([2]; AS115 10 μM or DMSO, p<0.001) of the same compound?
**A.** The value was 5.29.

**Q.** And the “Relative mass signal DMSO/AS115, MAGE C18” value ([2]; AS115 10 μM or DMSO, p<0.001)?
**A.** Its value is 5.86.

**Q.** And the “Relative mass signal DMSO/AS115, MAGE C18:1” value ([2]; AS115 10 μM or DMSO, p<0.001)?
**A.** The value was 4.42.

— patent US8940497B2, “Enzyme regulating ether lipid signaling pathways” (The Scripps Research Institute, priority 2006, dated 2015)
